Experimental data taken from article PMC6273932, “Xanthium strumarium as an Inhibitor of α-Glucosidase, Protein Tyrosine Phosphatase 1β, Protein Glycation and ABTS^+ for Diabetic and Its Complication” (Molecules, 2016).
In brackets after ≈: the same amount, converted by molar mass.

Experiments:
[1] = tested on: advanced glycation end products (AGEs); assay: AGEs inhibitory activity, bovine serum albumin-methylglyoxal assay (fluorescence); format: biochemical
Procedure: The modified procedure of Lee et al. was followed. Bovine serum albumin (10 mg/mL) was incubated with 5 mM methylglyoxal in sodium phosphate buffer (100 mM; pH 7.4). […] All of the reagents and samples were […] by filtration through 0.2 μm membrane filters and the mixture was incubated at 37 °C for 7 days. The fluorescence intensity was measured at an excitation wavelength of 330 nm and an emission wavelength of 410 nm with a LS50B fluorescence spectrometer Perkin-Elmer Ltd., (Buckinghamshire, FLS, UK). Aminoguanidine was also tested as a known inhibitor.

[2] = target: T1, protein tyrosine phosphatase 1β (PTP1β) (Homo sapiens, UniProt P18031); assay: PTP1β inhibitory activity assay (colorimetric kit, IR5 phosphopeptide substrate); format: biochemical
T1 sequence (P18031 1-322 limits assumed): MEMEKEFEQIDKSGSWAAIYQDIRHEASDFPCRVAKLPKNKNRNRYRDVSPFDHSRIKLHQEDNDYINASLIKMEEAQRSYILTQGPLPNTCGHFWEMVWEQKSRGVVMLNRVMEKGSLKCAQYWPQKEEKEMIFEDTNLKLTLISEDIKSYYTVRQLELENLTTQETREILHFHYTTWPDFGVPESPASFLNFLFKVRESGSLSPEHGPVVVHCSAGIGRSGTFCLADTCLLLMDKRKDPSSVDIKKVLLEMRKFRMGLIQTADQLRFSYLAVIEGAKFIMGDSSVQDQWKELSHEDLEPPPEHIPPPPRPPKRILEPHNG
Procedure: PTP1β tyrosine phosphatase drug discovery kit is a colorimetric, non-radioactive assay designed to measure the phosphatase activity of purified PTP1β. […] Following incubation at 37 °C for 30 min, the reaction was terminated with the BIOMOL RED^TM reagent. The amount of […] produced was estimated by measuring the absorbance at 620 nm. The non-enzymatic hydrolysis of the IR5 substrate was corrected by measuring the increase in absorbance at 620 nm obtained in the absence of PTP1β enzyme.

AGEs = tested on: AGEs; set-up: method as in PMID 20118563; conditions: isolated from the extracts of Erigeron annuus; cited from earlier work
[3] = tested on: rat lens aldose reductase; conditions: compounds from X. strumarium; cited from earlier work
[4] = tested on: α-glucosidase from Saccharomyces sp.; assay: α-glucosidase inhibitory activity assay (pNPG substrate, absorbance 405 nm); format: biochemical
Excerpt: ^1H- and ^13C-NMR spectra and correlation NMR spectra such as COSY, HMBC, HMQC, and DEPT were obtained from a Bruker Avance DPX 400 (or 600) spectrometer (Berlin, Germany). These were obtained at operating frequencies of 400 MHz (^1H) and 100 (or 150) MHz (^13C) with CD3OD, (CD3)2SO, (CD3)2CO, or D2O and TMS was used as an internal standard; chemical shifts were reported in δ values. The α-glucosidase from Saccharomyces sp. (SSG) was purchased from Wako Pure Chemical Industries Ltd (Tokyo, Japan). […] All other chemicals and reagents used were of analytical grade.
The α-glucosidase inhibitory activity of the extracts and fractions was determined using a modified procedure reported method with a slight modification. The α-glucosidase activity was measured using the substrate p-nitrophenyl-α-D-glucopyranoside (pNPG), which is hydrolyzed by α-glucosidase to release the product p-nitrophenol, a colorant that can be monitored at 405 nm. The initial concentration of the enzyme solution was 0.62 unit/mL in 0.1 M phosphate buffer (pH 6.9) and the initial concentration of the substrate solution was 2 mM in the same phosphate buffer. The enzyme solution was mixed with water and the samples or controls in a clear 96-well microplate (flat bottom) and the reaction was initiated by addition of the substrate to the solution. The plates were incubated at 37 °C for 5 min and the reaction was terminated by the addition of 0.1 M Na2CO3. […] Background absorbance was determined using a non-enzyme control microplate containing the buffer and was subtracted from the absorbance of the samples and controls.

[5] = ABTS^+ radical scavenging activity assay
Procedure: The method described by Li et al. was used with slight modifications. ABTS^+ diammonium salt (2 mM) and potassium persulfate (3.5 mM) were mixed, diluted in distilled water and kept in the dark at room temperature for 24 h before use. After addition of ABTS^+ solution to 10 µL of antioxidant, measurements were recorded at 10 min post reaction. The percentage inhibition of absorbance at 750 nm was calculated and plotted as a function of concentration of antioxidants. Trolox was used as positive control.

[6] = tested on: recombinant aldose reductase; conditions: compounds from X. strumarium; cited from earlier work
[7] = isolated compounds, - is no activity

IC50 ([1]; isolated compounds): 82.8 µM | IC50 AGEs [1, 7]: 43.96 ± 3.89 µg/mL (≈ 82.9 µM) | inhibition at 1 µg/mL ([2]; 1 μg/mL): 24% | inhibition at 2.5 µg/mL ([2]; 2.5 μg/mL): 30.7% | inhibition at 5 µg/mL ([2]; 5 μg/mL): 50% | inhibition at 10 µg/mL ([2]; 10 μg/mL, - is no activity): 82.5% | fold higher inhibition than positive control sumarin (PTP1β) ([2]; ratio of IC50 (μM) values): 2.93 fold | Inhibition (%) α-glucosidase ([4]; 2.5 μg/mL): 22.63% | Inhibition (%) α-glucosidase ([4]; 5 μg/mL): 40.00% | Inhibition (%) α-glucosidase ([4]; 12.5 μg/mL): 59.11% | Inhibition (%) α-glucosidase ([4]; 25 μg/mL): 96.50% | IC50 ([4]; isolated compounds): 18.4 µM | IC50 α-glucosidase [4, 7]: 9.78 ± 0.79 µg/mL (≈ 18.4 µM) | fold higher inhibition than positive control acarbose (α-glucosidase) ([4]; ratio of IC50 (μM) values): 31.74 fold | IC50 ([5]; isolated compounds): 6.03 µM | IC50 ABTS^+ radical scavenging [5, 7]: 3.20 ± 0.28 µg/mL (≈ 6.03 µM)
SMILES: COC(=O)[C@]1(O)C[C@@H](OC(=O)/C=C/c2ccc(O)c(O)c2)[C@@H](O)[C@H](OC(=O)/C=C/c2ccc(O)c(O)c2)C1 [compound 6, methyl-3,5-di-O-caffeoylquinic acid]
Inhibition (%) AGEs ([1]; 10 μg/mL): 24.24% | Inhibition (%) AGEs ([1]; 20 μg/mL): 34.59% | Inhibition (%) AGEs ([1]; 50 μg/mL): 54.77% | Inhibition (%) AGEs ([1]; 100 μg/mL): 89.47% | fold higher inhibition than positive control aminoguanidine (AGEs) ([1]; ratio of IC50 (μM) values): 17.03 fold | inhibitory activity on AGEs (AGEs): strong inhibitory activity | rat lens aldose reductase inhibitory activity [3]: strong | Inhibition (%) ABTS^+ ([5]; 0.33 μg/mL): 7.49% | Inhibition (%) ABTS^+ ([5]; 1.66 μg/mL): 33.69% | Inhibition (%) ABTS^+ ([5]; 8.33 μg/mL): 98.31% | fold higher inhibition than positive control trolox (ABTS^+) ([5]; ratio of IC50 (μM) values): 4.93 fold | recombinant aldose reductase inhibitory activity [6]: strong
